Test results reported in patent publication US9125913B2, “Bcl-2-selective apoptosis-inducing agents for the treatment of cancer and immune diseases” (AbbVie Inc., priority 2008, dated 2015).

test system: GST-Bcl-2; assay: TR-FRET binding assay, Bcl-2; conditions: TR-FRET Ki values
How it was run: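 Compounds serially diluted in DMSO from 50 μM (2× starting concentration, 10% DMSO), mixed with GST-tagged protein, F-Bak peptide probe and Tb-labeled antibody, incubated 3 h at room temperature.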

SMILES	Binding selectivity ratio (Bcl-XL Ki/Bcl-2 Ki)
CN(C)CCOc1cccc(-c2ccc(Cl)cc2)c1CN1CCN(c2ccc(C(=O)NS(=O)(=O)c3ccc(NC4CCN(C5CCOCC5)CC4)c([N+](=O)[O-])c3)c(Oc3cccc4[nH]ccc34)c2)CC1 [EXAMPLE 199, 4-[4-({4′-chloro-3-[2-(dimethylamino)ethoxy]-1,1′-biphenyl-2-yl}methyl)piperazin-1-yl]-2-(1H-indol-4-yloxy)-N-({3-nitro-4-[(1-tetrahydro-2H-pyran-4-ylpiperidin-4-yl)amino]phenyl}sulfonyl)benzamide]	369.8
COCCOCCSc1ccc(S(=O)(=O)NC(=O)c2ccc(N3CCN(CC4=C(c5ccc(Cl)cc5)CC(C)(C)CC4)CC3)cc2Oc2cccc3[nH]ccc23)cc1[N+](=O)[O-] [EXAMPLE 381, 4-(4-{[2-(4-chlorophenyl)-4,4-dimethylcyclohex-1-en-1-yl]methyl}piperazin-1-yl)-2-(1H-indol-4-yloxy)-N-[(4-{[2-(2-methoxyethoxy)ethyl]thio}-3-nitrophenyl)sulfonyl]benzamide]	448.3
CC1(C)CCC(CN2CCN(c3ccc(C(=O)NS(=O)(=O)c4cnc(OCC5(F)CCN(C(CF)CF)CC5)c(C(F)(F)F)c4)c(Oc4cccc5[nH]ncc45)c3)CC2)=C(c2ccc(Cl)cc2)C1 [EXAMPLE 459, 4-(4-{[2-(4-chlorophenyl)-4,4-dimethylcyclohex-1-en-1-yl]methyl}piperazin-1-yl)-N-{[6-({4-fluoro-1-[2-fluoro-1-(fluoromethyl)ethyl]piperidin-4-yl}methoxy)-5-(trifluoromethyl)pyridin-3-yl]sulfonyl}-2-(1H-indazol-4-yloxy)benzamide]	541.58
COc1ccc(Nc2ccc(S(=O)(=O)NC(=O)c3ccc(N4CCN(CC5=C(c6ccc(Cl)cc6)CC(C)(C)CC5)CC4)cc3Oc3ccc4[nH]ccc4c3)cc2[N+](=O)[O-])cc1O [EXAMPLE 394, 4-(4-{[2-(4-chlorophenyl)-4,4-dimethylcyclohex-1-en-1-yl]methyl}piperazin-1-yl)-N-({4-[(3-hydroxy-4-methoxyphenyl)amino]-3-nitrophenyl}sulfonyl)-2-(1H-indol-5-yloxy)benzamide]	>263262.863980854
CC1(C)CCC(CN2CCN(c3ccc(C(=O)NS(=O)(=O)c4ccc(NC5CCS(=O)(=O)C5)c([N+](=O)[O-])c4)c(Oc4ccc5[nH]ccc5c4)c3)CC2)=C(c2ccc(Cl)cc2)C1 (stereo not drawn) [EXAMPLE 276, 4-(4-{[2-(4-chlorophenyl)-4,4-dimethylcyclohex-1-en-1-yl]methyl}piperazin-1-yl)-N-({4-[(1,1-dioxidotetrahydrothien-3-yl)amino]-3-nitrophenyl}sulfonyl)-2-(1H-indol-5-yloxy)benzamide]	2650.8
CC1(C)CCC(CN2CCN(c3ccc(C(=O)NS(=O)(=O)c4cnc(OCC5CCOCC5)c(-c5nccs5)c4)c(Oc4ccc5[nH]ccc5c4)c3)CC2)=C(c2ccc(Cl)cc2)C1 [EXAMPLE 331, 4-(4-{[2-(4-chlorophenyl)-4,4-dimethylcyclohex-1-en-1-yl]methyl}piperazin-1-yl)-2-(1H-indol-5-yloxy)-N-{[6-(tetrahydro-2H-pyran-4-ylmethoxy)-5-(1,3-thiazol-2-yl)pyridin-3-yl]sulfonyl}benzamide]	>79.8
CC1(C)CCC(CN2CCN(c3ccc(C(=O)NS(=O)(=O)c4ccc(NC5CCS(=O)(=O)C5)c([N+](=O)[O-])c4)c(Oc4cccc5[nH]ccc45)c3)CC2)=C(c2ccc(Cl)cc2)C1 (stereo not drawn) [EXAMPLE 299, 4-(4-{[2-(4-chlorophenyl)-4,4-dimethylcyclohex-1-en-1-yl]methyl}piperazin-1-yl)-N-({4-[(1,1-dioxidotetrahydrothien-3-yl)amino]-3-nitrophenyl}sulfonyl)-2-(1H-indol-4-yloxy)benzamide]	577.7
CC1(C)CCC(CN2CCN(c3ccc(C(=O)NS(=O)(=O)c4ccc(OCC5CCOC(C)(C)C5)c([N+](=O)[O-])c4)c(Oc4ccc5[nH]ccc5c4)c3)CC2)=C(c2ccc(Cl)cc2)C1 (stereo not drawn) [EXAMPLE 384, 4-(4-{[2-(4-chlorophenyl)-4,4-dimethylcyclohex-1-en-1-yl]methyl}piperazin-1-yl)-N-({4-[(2,2-dimethyltetrahydro-2H-pyran-4-yl)methoxy]-3-nitrophenyl}sulfonyl)-2-(1H-indol-5-yloxy)benzamide]	>8684.2
CC1(C)CCC(CN2CCN(c3ccc(C(=O)NS(=O)(=O)c4ccc(OC[C@H]5COCCO5)c([N+](=O)[O-])c4)c(Oc4ccc5[nH]ccc5c4)c3)CC2)=C(c2ccc(Cl)cc2)C1 [EXAMPLE 346, 4-(4-{[2-(4-chlorophenyl)-4,4-dimethylcyclohex-1-en-1-yl]methyl}piperazin-1-yl)-N-({4-[(2R)-1,4-dioxan-2-ylmethoxy]-3-nitrophenyl}sulfonyl)-2-(1H-indol-5-yloxy)benzamide]	11405.2
CC1(C)CCC(CN2CCN(c3ccc(C(=O)NS(=O)(=O)c4ccc(NC5CCN(C6CCOCC6)CC5)c([N+](=O)[O-])c4)c(Oc4cccnc4)c3)CC2)=C(c2ccc(Cl)cc2)C1 [EXAMPLE 398, 4-(4-{[2-(4-chlorophenyl)-4,4-dimethylcyclohex-1-en-1-yl]methyl}piperazin-1-yl)-N-({3-nitro-4-[(1-tetrahydro-2H-pyran-4-ylpiperidin-4-yl)amino]phenyl}sulfonyl)-2-(pyridin-3-yloxy)benzamide]	67.69
CC1(C)CCC(CN2CCN(c3ccc(C(=O)NS(=O)(=O)c4ccc(NC[C@H]5CC[C@H](O)CC5)c([N+](=O)[O-])c4)c(Oc4ccc5[nH]ccc5c4)c3)CC2)=C(c2ccc(Cl)cc2)C1 [EXAMPLE 310, Trans-4-(4-{[2-(4-chlorophenyl)-4,4-dimethylcyclohex-1-en-1-yl]methyl}piperazin-1-yl)-N-[(4-{[(4-hydroxycyclohexyl)methyl]amino}-3-nitrophenyl)sulfonyl]-2-(1H-indol-5-yloxy)benzamide]	>13469.4
CN(C)CC(=O)N1CCO[C@H](COc2ncc(S(=O)(=O)NC(=O)c3ccc(N4CCN(CC5=C(c6ccc(Cl)cc6)CC(C)(C)CC5)CC4)cc3Oc3cccc4[nH]ncc34)cc2Cl)C1 [EXAMPLE 425, N-[(5-chloro-6-{[(2S)-4-(N,N-dimethylglycyl)morpholin-2-yl]methoxy}pyridin-3-yl)sulfonyl]-4-(4-{[2-(4-chlorophenyl)-4,4-dimethylcyclohex-1-en-1-yl]methyl}piperazin-1-yl)-2-(1H-indazol-4-yloxy)benzamide]	1282
CC1(C)CCC(CN2CCN(c3ccc(C(=O)NS(=O)(=O)c4ccc(NN5CCCCC5)c([N+](=O)[O-])c4)c(Oc4ccc5[nH]ccc5c4)c3)CC2)=C(c2ccc(Cl)cc2)C1 [EXAMPLE 284, 4-(4-{[2-(4-chlorophenyl)-4,4-dimethylcyclohex-1-en-1-yl]methyl}piperazin-1-yl)-2-(1H-indol-5-yloxy)-N-{[3-nitro-4-(piperidin-1-ylamino)phenyl]sulfonyl}benzamide]	>425.2
CN(C)C1CCC(Nc2ccc(S(=O)(=O)NC(=O)c3ccc(N4CCN(CC5=C(c6ccc(Cl)cc6)CC(C)(C)CC5)CC4)cc3Oc3cccc4[nH]ccc34)cc2[N+](=O)[O-])CC1 (stereo not drawn) [EXAMPLE 202, 4-(4-{[2-(4-chlorophenyl)-4,4-dimethylcyclohex-1-en-1-yl]methyl}piperazin-1-yl)-N-[(4-{[4-(dimethylamino)cyclohexyl]amino}-3-nitrophenyl)sulfonyl]-2-(1H-indol-4-yloxy)benzamide]	97.1
CC1(C)CCC(CN2CCN(c3ccc(C(=O)NS(=O)(=O)c4cnc(OCC5CCOCC5)c(C#N)c4)c(Oc4ccc5[nH]ccc5c4)c3)CC2)=C(c2ccc(Cl)cc2)C1 [EXAMPLE 333, 4-(4-{[2-(4-chlorophenyl)-4,4-dimethylcyclohex-1-en-1-yl]methyl}piperazin-1-yl)-N-{[5-cyano-6-(tetrahydro-2H-pyran-4-ylmethoxy)pyridin-3-yl]sulfonyl}-2-(1H-indol-5-yloxy)benzamide]	>7415.7
COCCN1CCC(Nc2ccc(S(=O)(=O)NC(=O)c3ccc(N4CCN(CC5=C(c6ccc(Cl)cc6)CC(C)(C)CC5)CC4)cc3Oc3cccc4[nH]ccc34)cc2[N+](=O)[O-])CC1 [EXAMPLE 194, 4-(4-{[2-(4-chlorophenyl)-4,4-dimethylcyclohex-1-en-1-yl]methyl}piperazin-1-yl)-2-(1H-indol-4-yloxy)-N-[(4-{[1-(2-methoxyethyl)piperidin-4-yl]amino}-3-nitrophenyl)sulfonyl]benzamide]	212.4
CC1(C)CCC(CN2CCN(c3ccc(C(=O)NS(=O)(=O)c4ccc(NC5CCN(C6CCOCC6)CC5)c([N+](=O)[O-])c4)c(Oc4ccc5[nH]ccc5c4)c3F)CC2)=C(c2ccc(Cl)cc2)C1 [EXAMPLE 185, 4-(4-{[2-(4-chlorophenyl)-4,4-dimethylcyclohex-1-en-1-yl]methyl}piperazin-1-yl)-3-fluoro-2-(1H-indol-5-yloxy)-N-({3-nitro-4-[(1-tetrahydro-2H-pyran-4-ylpiperidin-4-yl)amino]phenyl}sulfonyl)benzamide]	361.5
CC1(C)CC(c2ccc(Cl)cc2)=C(CN2CCN(c3ccc(C(=O)NS(=O)(=O)c4cnc(OCC5(F)CCOCC5)c(Cl)c4)c(Oc4cccc5[nH]ncc45)c3)CC2)CO1 [EXAMPLE 465, N-({5-chloro-6-[(4-fluorotetrahydro-2H-pyran-4-yl)methoxy]pyridin-3-yl}sulfonyl)-4-(4-{[4-(4-chlorophenyl)-6,6-dimethyl-5,6-dihydro-2H-pyran-3-yl]methyl}piperazin-1-yl)-2-(1H-indazol-4-yloxy)benzamide]	1472
